Data from EP1145714A1, “DRUGS” (Takeda Chemical Industries, Ltd., priority 1998, dated 2000).

How the values were obtained:
[1] = system: morphine-induced vomiting in dogs; test: Morphine-induced vomiting in dogs, oral dosing; type: in vivo, beagle dogs; conditions: morphine 0.3 mg/kg subcutaneous
Method: Male 6 or 7 beagle dogs (8.8 to 14.5 kg) per one group were used. Morphine was subcutaneously administered at 0.3 mg/0. 03 ml/kg. 2.5 hours before morphine dosing, a small amount of a feed was given to the animals. 30 minutes thereafter, predetermined doses of the compound No. 3 were orally given. To a control animal group under no fasting was orally given a predetermined volume of 0.5 % methyl cellulose solution. A predetermined dose of ondansetron was orally given to the animals under fasting. To a control animal group of ondansetron under fasting was orally given a predetermined volume of physiological saline. The frequency of vomiting was counted up to 30 minutes after morphine dosing.
The compound No. 3 was suspended in 0.5 % methyl cellulose solution and was then orally administered at a ratio of 1 ml per 1 kg body weight. An injection of ondansetron at a concentration of 0.2 w/v % was orally dosed. Additionally, 0.5 % methyl cellulose solution was orally given at a ratio of 1 ml per 1 kg body weight, while physiological saline was orally given at a ratio of 0.5 ml per 1 kg body weight. The data relating to the frequency of vomiting, the time period (latency) until first vomiting and the time period from the occurrence of vomiting to the termination thereof were statistically analyzed by the Dunnett test or t test, with reference to the difference from the control group.
The retching suppression ratio and vomiting suppression ratio were calculated by the following formula. [Frequency of retching or vomiting in control] - [Frequency of retching or vomiting in animals dosed with compound No. 3] / [Frequency of retching or vomiting in control] x 100 (%) [formula]

[2] = system: acute vomiting induced by a central emetic agent loperamide in dogs; test: Acute vomiting induced by loperamide in dogs; type: in vivo, beagle dogs; conditions: loperamide 1 mg/kg subcutaneous; for B: Frequency of vomiting (mean ± SD) / C: Time period until first vomiting (minute; mean ± SD) / D: Duration of vomiting (minute; mean ± SD) / Number of dogs with vomiting/number of tested dogs: 3 hours
Method: 3 male or female beagle dogs (7.7 to 12.7 kg) per one group were used. Loperamide was subcutaneously given at 1 mg/ml/kg. 2.5 hours prior to loperamide administration, a small amount of a feed was given to the animals. 30 minutes thereafter, predetermined doses of the compound No. 3 were orally given. Similarly, 0.5 % methyl cellulose solution was orally given to a control animal group under no fasting. Predetermined doses of naloxone and ondansetron were given intravenously and orally, respectively to the animals under fasting, 30 minutes prior to loperamide administration. The frequency of vomiting was counted, up to 3 hours after loperamide administration. The compound No. 3 was dissolved in 0.5 % methyl cellulose solution, for oral dosing at a ratio of 0.25 to 1 ml per 1 kg body weight. Additionally, naloxone was intravenously given in a solution at a concentration of 0.05 % w/v. An injection of ondansetron at a concentration of 0.2 % w/v was orally given. Still additionally, 0.5 % methyl cellulose solution was orally given at a ratio of 1 ml per 1 kg body weight. The data relating to the frequency of vomiting, the latency and the time period from the occurrence of vomiting to the termination thereof were statistically analyzed by the Dunnett test, with reference to the difference from the control group.
The vomiting suppression ratio was calculated by the following formula. [Frequency of retching or vomiting in control] - [Frequency of retching or vomiting in animals dosed with compound No. 3] / [frequency of retching or vomiting in control] x 100 (%) [formula]

[3] = 1 mg/kg p.o., under fasting, 30 minutes

In the case of `Cc1ccc(-c2c3n(c(=O)c4ncccc24)CC[C@@H](C)CN(Cc2cc(C(F)(F)F)cc(C(F)(F)F)c2)C3=O)cc1` [Cpd. No.3, (9R)-7-[3,5-bis(trifluoromethyl)benzyl]-6,7,8,9,10,11-hexahydro-9-methyl-5-(4-methylphenyl)-6,13-dioxo-13H-[1,4]diazocino[2,1-g][1,7]naphthylidine], the “Acute vomiting suppression ratio” value ([1]; 0.1 mg/kg p.o.) is reported as 55 % NS, the “B: Frequency of vomiting (mean ± 3D)” value ([1]; 0.1 mg/kg p.o., 30 minutes) is reported as 1.0 ± 0 and the “C: Time period until first vomiting (minute; mean ± SD)” value ([1]; 0.1 mg/kg p.o., 30 minutes) is reported as 8.7 ± 1.2 min. For the same compound, the “D: Duration of vomiting (minute; mean ± SD)” value ([1]; 0.1 mg/kg p.o., 30 minutes) was 0 min, the “Number of dogs with vomiting/number of tested dogs” value ([1]; 0.1 mg/kg p.o., 30 minutes) was 3/3 and the “Acute vomiting suppression ratio” value ([1]; 0.3 mg/kg p.o.) was 86 % NS. For the same compound, the “Effect on vomiting (in words)” value ([1]; 0.3 mg/kg p.o.) was “significantly suppressed”, the “B: Frequency of vomiting (mean ± 3D)” value ([1]; 0.3 mg/kg p.o., 30 minutes) was 0.3 ± 0.3a and the “C: Time period until first vomiting (minute; mean ± SD)” value ([1]; 0.3 mg/kg p.o., 30 minutes) was 22.0 ± 8.0 a minute. The “D: Duration of vomiting (minute; mean ± SD)” value ([1]; 0.3 mg/kg p.o., 30 minutes) was 0 min, the “Number of dogs with vomiting/number of tested dogs” value ([1]; 0.3 mg/kg p.o., 30 minutes) was 1/3 and the “Acute vomiting suppression ratio” value ([1]; 1 mg/kg p.o.) was 100 % b. The “Effect on vomiting (in words)” value ([1]; 1 mg/kg p.o.) was “completely suppressed”, the “B: Frequency of vomiting (mean ± 3D)” value ([1]; 1 mg/kg p.o., 30 minutes) was 0 b and the “C: Time period until first vomiting (minute; mean ± SD)” value ([1]; 1 mg/kg p.o., 30 minutes) was 30 b minute. The “D: Duration of vomiting (minute; mean ± SD)” value ([1]; 1 mg/kg p.o., 30 minutes) was 0 min, the “Number of dogs with vomiting/number of tested dogs” value ([1]; 1 mg/kg p.o., 30 minutes) was 0/3 and the Vomiting suppression ratio ([2]; 0.01 mg/kg p.o.) was 20 % NS. For the same compound, the “B: Frequency of vomiting (mean ± SD)” value ([2]; 0.01 mg/kg p.o.) was 8.0 ± 2.5, the “C: Time period until first vomiting (minute; mean ± SD)” value ([2]; 0.01 mg/kg p.o.) was 0.74 ± 0.07 min and the “D: Duration of vomiting (minute; mean ± SD)” value ([2]; 0.01 mg/kg p.o.) was 1.24 ± 0.21 min. For the same compound, the “Number of dogs with vomiting/number of tested dogs” value ([2]; 0.01 mg/kg p.o.) was 3/3, the “Effect on vomiting (in words)” value ([2]; 0.03 mg/kg or higher p.o.) was “significantly suppressed” and the Vomiting suppression ratio ([2]; 0.03 mg/kg p.o.) was 80 % a. The “B: Frequency of vomiting (mean ± SD)” value ([2]; 0.03 mg/kg p.o.) was 2.0 ± 0.6 a, the “C: Time period until first vomiting (minute; mean ± SD)” value ([2]; 0.03 mg/kg p.o.) was 1.08 ± 0.11 min and the “D: Duration of vomiting (minute; mean ± SD)” value ([2]; 0.03 mg/kg p.o.) was 0.44 ± 0.22 min. For the same compound, the “Number of dogs with vomiting/number of tested dogs” value ([2]; 0.03 mg/kg p.o.) was 3/3, the Vomiting suppression ratio ([2]; 0.1 mg/kg p.o.) was 73 % a and the “B: Frequency of vomiting (mean ± SD)” value ([2]; 0.1 mg/kg p.o.) was 2.7 ± 2.2 a. For the same compound, the “C: Time period until first vomiting (minute; mean ± SD)” value ([2]; 0.1 mg/kg p.o.) was 1.98 ± 0.55 a minute, the “D: Duration of vomiting (minute; mean ± SD)” value ([2]; 0.1 mg/kg p.o.) was 0.59 ± 0.59 min and the “Number of dogs with vomiting/number of tested dogs” value ([2]; 0.1 mg/kg p.o.) was 2/3. For the same compound, the Vomiting suppression ratio ([2]; 1 mg/kg p.o.) was 67 % a, the “B: Frequency of vomiting (mean ± SD)” value ([2]; 1 mg/kg p.o.) was 3.3 ± 1.2 a and the “C: Time period until first vomiting (minute; mean ± SD)” value ([2]; 1 mg/kg p.o.) was 1.25 ± 0.35 min. For the same compound, the “D: Duration of vomiting (minute; mean ± SD)” value ([2]; 1 mg/kg p.o.) was 0.68 ± 0.34 min, the “Number of dogs with vomiting/number of tested dogs” value ([2]; 1 mg/kg p.o.) was 3/3 and the Vomiting suppression ratio ([2]; 3 mg/kg p.o.) was 70 % a. The “B: Frequency of vomiting (mean ± SD)” value ([2]; 3 mg/kg p.o.) was 3.0 ± 0.6 a, the “C: Time period until first vomiting (minute; mean ± SD)” value ([2]; 3 mg/kg p.o.) was 1.63 ± 0.34 min and the “D: Duration of vomiting (minute; mean ± SD)” value ([2]; 3 mg/kg p.o.) was 0.38 ± 0.13 a minute. The “Number of dogs with vomiting/number of tested dogs” value ([2]; 3 mg/kg p.o.) was 3/3, the “Effect on vomiting (in words)” value ([2]; 10 mg/kg p.o.) was “completely suppressed” and the Vomiting suppression ratio ([2]; 10 mg/kg p.o.) was 100 % b. The “B: Frequency of vomiting (mean ± SD)” value ([2]; 10 mg/kg p.o.) was 0 b, the “C: Time period until first vomiting (minute; mean ± SD)” value ([2]; 10 mg/kg p.o.) was 3 b minute and the “D: Duration of vomiting (minute; mean ± SD)” value ([2]; 10 mg/kg p.o.) was 0 b minute. The “Number of dogs with vomiting/number of tested dogs” value ([2]; 10 mg/kg p.o.) was 0/3.
`Cc1nccn1CC1CCc2c(c3ccccc3n2C)C1=O` (stereo not shown) [Ondansetron, ondansetron, reference compound] was tested, and the “Acute vomiting suppression ratio” value ([1]; 1 mg/kg p.o.) was 48 % NS, the “Effect on vomiting (in words)” value ([1]; 1 mg/kg p.o.) was “did not suppress” and the “B: Frequency of vomiting (mean ± SD)” value [1, 3] was 1.7 ± 0.3. The “C: Time period until first vomiting (minute; mean ± SD)” value [1, 3] was 5.0 ± 1.0 min, the “D: Duration of vomiting (minute; mean ± SD)” value [1, 3] was 1.0 ± 0.6 min and the “Number of dogs with vomiting/number of tested dogs” value [1, 3] was 3/3. The “Effect on vomiting (in words)” value ([2]; 10 mg/kg p.o.) was “did not suppress”, the Vomiting suppression ratio ([2]; 10 mg/kg p.o.) was 3 % NS and the “B: Frequency of vomiting (mean ± SD)” value ([2]; 10 mg/kg p.o.) was 9.7 ± 2.7. The “C: Time period until first vomiting (minute; mean ± SD)” value ([2]; 10 mg/kg p.o.) was 0.50 ± 0.14 min, the “D: Duration of vomiting (minute; mean ± SD)” value ([2]; 10 mg/kg p.o.) was 1.30 ± 0.11 min and the “Number of dogs with vomiting/number of tested dogs” value ([2]; 10 mg/kg p.o.) was 3/3.
